Test results taken from ChEMBL document CHEMBL5512665, “A CARM1 Inhibitor Potently Suppresses Breast Cancer Both In Vitro and In Vivo” (J Med Chem, 2024).
Active and inactive are the calls of the source.

Experiments:
MCF7 [1] = experiment: Antitumor activity against human MCF7 cells xenografted in BALB/C mouse assessed as downregulation of FOXC1 gene expression at 25 mg/kg,ip administrated every other day for 29 days by RT-qPCR analysis; type: functional, organism-based; details: time 29.0 day
[2] = Toxicity in BALB/C mouse xenografted with human MCF7 cells assessed as change in spleen morphology at 25 mg/kg,ip administrated every other day for 29 days; type: organism-based; details: in vivo, 696 h, time 29 day
4T1 [3] = experiment: Antitumor activity against mouse 4T1 cells implanted in BALB/C mouse assessed as upregulation of IFNalpha gene expression at 50 mg/kg,ip administrated daily for 14 days by RT-qPCR analysis; type: functional, organism-based; details: time 14.0 day
MCF7 [4] = experiment: Potentiation of etoposide induced antiproliferative activity against human MCF7 cells assessed as upregulation of DDX58 gene expression at 2.5 uM in presence of etoposide by RT-qPCR analysis; type: functional, cell-based
[5] = Toxicity in BALB/C mouse implanted with mouse 4T1 cells assessed as change in lung morphology at 50 mg/kg,ip administrated daily for 14 days; type: organism-based; details: in vivo, 336 h, time 14 day
4T1 [6] = experiment: Antitumor activity against mouse 4T1 cells implanted in BALB/C mouse assessed as downregulation of FOXC1 gene expression at 25 mg/kg,ip administrated daily for 14 days by RT-qPCR analysis; type: functional, organism-based; details: time 14.0 day
MCF7 [7] = experiment: Antitumor activity against human MCF7 cells xenografted in BALB/C mouse assessed as downregulation of N-Myc gene expression at 50 mg/kg,ip administrated every other day for 29 days by RT-qPCR analysis; type: functional, organism-based; details: time 29.0 day
[8] = Toxicity in BALB/C mouse xenografted with human MDA-MB-231 cells assessed as change in body weight at 50 mg/kg,ip administrated daily for 11 days; type: organism-based; details: in vivo, 264 h, time 11 day
MCF7 [9] = experiment: Antitumor activity against human MCF7 cells xenografted in BALB/C mouse assessed as downregulation of CCND1 gene expression at 25 mg/kg,ip administrated every other day for 29 days by RT-qPCR analysis; type: functional, organism-based; details: time 29.0 day
MCF7 [10] = experiment: Synergistic antiproliferative activity against human MCF7 cells assessed as downregulation of C-Myc gene expression at 2.5 uM incubated for 6 hrs in presence of tamoxifen by RT-qPCR analysis; type: functional, cell-based
MCF7 [11] = experiment: Antitumor activity against human MCF7 cells xenografted in BALB/C mouse assessed as downregulation of NRIP1 gene expression at 25 mg/kg,ip administrated every other day for 29 days by RT-qPCR analysis; type: functional, organism-based; details: time 29.0 day
MCF7 [12] = experiment: Synergistic antitumor activity against human MCF7 cells xenografted in BALB/C mouse assessed as reduction in tumor weight at 25 mg/kg,ip administrated every other day for 15 days in presence of 5 mg/kg tamoxifen oral administration; type: functional, organism-based; details: time 15.0 day
4T1 [13] = experiment: Potentiation of etoposide induced antitumor activity against mouse 4T1 cells implanted in BALB/C mouse assessed as upregulation of ISG15 gene expression at 25 mg/kg,ip administrated daily for 12 days in presence of 8 mg/kg etoposide administration by RT-qPCR analysis; type: functional, organism-based; details: time 12.0 day
[14] = Toxicity in BALB/C mouse implanted with mouse 4T1 cells assessed as change in body weight at 25 mg/kg,ip administrated daily for 14 days; type: organism-based; details: in vivo, 336 h, time 14 day
MCF7 [15] = experiment: Potentiation of etoposide induced antiproliferative activity against human MCF7 cells assessed as inhibition of colony formation at 2.5 uM incubated for 10 days in presence of etoposide by crystal violet staining based analysis; type: functional, cell-based; details: time 10.0 day
MDA-MB-231 [16] = experiment: Antitumor activity against human MDA-MB-231 cells xenografted in BALB/C mouse assessed as reduction of tumor size at 25 mg/kg,ip administrated daily for 11 days; type: functional, organism-based; details: time 11.0 day
MCF7 [17] = experiment: Antitumor activity against human MCF7 cells xenografted in BALB/C mouse assessed as upregulation of CCL5 gene expression at 50 mg/kg,ip administrated every other day for 29 days by RT-qPCR analysis; type: functional, organism-based; details: time 29.0 day
MDA-MB-231 [18] = experiment: Antitumor activity against human MDA-MB-231 cells xenografted in BALB/C mouse assessed as reduction of tumor weight at 25 mg/kg,ip administrated daily for 11 days; type: functional, organism-based; details: time 11.0 day
4T1 [19] = experiment: Potentiation of etoposide induced antiproliferative activity against mouse 4T1 cells assessed as upregulation of CCL5 gene expression at 2.5 uM in presence of etoposide by RT-qPCR analysis; type: functional, cell-based
4T1 [20] = experiment: Potentiation of etoposide induced antitumor activity against mouse 4T1 cells implanted in BALB/C mouse assessed as upregulation of IFNalpha gene expression at 25 mg/kg,ip administrated daily for 12 days in presence of 8 mg/kg etoposide administration by RT-qPCR analysis; type: functional, organism-based; details: time 12.0 day
T47D = experiment: Induction of cell cycle arrest in human T47D cells at 2.5 to 10 uM incubated overnight by propidium iodide staining based flow cytometry; type: functional; details: dose 2.5-10 µM
MCF7 [21] = experiment: Synergistic antitumor activity against human MCF7 cells xenografted in BALB/C mouse assessed as downregulation of TFF1 gene expression at 25 mg/kg,ip administrated every other day for 15 days in presence of 5 mg/kg tamoxifen oral administration by RT-qPCR analysis; type: functional, organism-based; details: time 15.0 day
[22] = Toxicity in BALB/C mouse implanted with mouse 4T1 cells assessed as change in heart morphology at 50 mg/kg,ip administrated daily for 14 days; type: organism-based; details: in vivo, 336 h, time 14 day
4T1 [23] = experiment: Antitumor activity against mouse 4T1 cells implanted in BALB/C mouse assessed as upregulation of CCL5 gene expression at 25 mg/kg,ip administrated daily for 14 days by RT-qPCR analysis; type: functional, organism-based; details: time 14.0 day
MCF7 [24] = experiment: Potentiation of etoposide induced antiproliferative activity against human MCF7 cells assessed as upregulation of IFNalpha gene expression at 2.5 uM in presence of etoposide by RT-qPCR analysis; type: functional, cell-based
[25] = Toxicity in BALB/C mouse xenografted with human MDA-MB-231 cells assessed as change in heart morphology at 25 mg/kg,ip administrated daily for 11 days; type: organism-based; details: in vivo, 264 h, time 11 day
4T1 [26] = experiment: Antitumor activity against mouse 4T1 cells implanted in BALB/C mouse assessed as downregulation of N-Myc gene expression at 25 mg/kg,ip administrated daily for 14 days by RT-qPCR analysis; type: functional, organism-based; details: time 14.0 day
4T1 [27] = experiment: Potentiation of etoposide induced antitumor activity against mouse 4T1 cells implanted in BALB/C mouse assessed as upregulation of CCL5 gene expression at 25 mg/kg,ip administrated daily for 12 days in presence of 8 mg/kg etoposide administration by RT-qPCR analysis; type: functional, organism-based; details: time 12.0 day
4T1 [28] = experiment: Antitumor activity against mouse 4T1 cells implanted in BALB/C mouse assessed as downregulation of CCND1 gene expression at 50 mg/kg,ip administrated daily for 14 days by RT-qPCR analysis; type: functional, organism-based; details: time 14.0 day
4T1 [29] = experiment: Antitumor activity against mouse 4T1 cells implanted in BALB/C mouse assessed as inhibition of tumor weight at 50 mg/kg,ip administrated daily for 14 days; type: functional, organism-based; details: time 14.0 day
MCF7 [30] = experiment: Synergistic antitumor activity against human MCF7 cells xenografted in BALB/C mouse assessed as downregulation of N-Myc gene expression at 25 mg/kg,ip administrated every other day for 15 days in presence of 5 mg/kg tamoxifen oral administration by RT-qPCR analysis; type: functional, organism-based; details: time 15.0 day

Measured: Activity

Cc1ccc(-c2nc(N3CCN(CCN(C)C)CC3)ncc2-c2ccoc2)cc1.Cl.Cl
Non-Toxic: [2] | [5] | [8] | [14] | [22] | [25]
active: all other assays above
